Laboratory results from patent US6635278B1, “Pharmaceutical formulations” (Gilead Sciences, Inc., priority 1998, dated 2003).

How the values were obtained:
[1] = Stability of aqueous AD solutions versus pH; type: physicochemical
[2] = AD solubility in crystallization solvents; type: physicochemical

pH of maximum stability [1]: 3-5
AD content the solvent can contain ([2]; methanol or CH2Cl2): more than 50%
upper limit of solubility of AD ([2]; most crystallization solvents at room temperature): 10-41%
solubility ([2]; organic solvent or mixture, in di-n-butyl ether): < 300 µg/mL
SMILES: CC(C)(C)C(=O)OCOP(=O)(COCCn1cnc2c(N)ncnc21)OCOC(=O)C(C)(C)C [AD, 9-[2-[[bis[(pivaloyloxy)methyl]phosphono]methoxy]ethyl]adenine]
